Data set [1] is described as follows: Metabolite study in human liver S9 (high resolution LC-MS). It counts as in vitro ADME. As for the experimental part: Metabolite studies were conducted using Q-M3190 and Q-6009 (Q is Glutamine).
Liver S9 is the supernatant obtained by grinding and centrifuging the liver cells. The enzymes content is lower compared to Hepatocytes. It mainly contains CYP enzymes and some biphasic enzymes (but no biphasic coenzyme), so additional coenzyme (NADPH and UDPGA, etc.) is needed to mediate the biphasic reaction.

The target of data set [2] is T1, GLP-1R (Homo sapiens, UniProt P43220). The experiment in a line: GLP-1R cAMP assay of peptides (Tables 10, 14, 15). It counts as cell-based. For orientation: Cyclic AMP is a second messenger, typically raised through Gs and lowered through Gi signalling.
T1 sequence (P43220 24-463): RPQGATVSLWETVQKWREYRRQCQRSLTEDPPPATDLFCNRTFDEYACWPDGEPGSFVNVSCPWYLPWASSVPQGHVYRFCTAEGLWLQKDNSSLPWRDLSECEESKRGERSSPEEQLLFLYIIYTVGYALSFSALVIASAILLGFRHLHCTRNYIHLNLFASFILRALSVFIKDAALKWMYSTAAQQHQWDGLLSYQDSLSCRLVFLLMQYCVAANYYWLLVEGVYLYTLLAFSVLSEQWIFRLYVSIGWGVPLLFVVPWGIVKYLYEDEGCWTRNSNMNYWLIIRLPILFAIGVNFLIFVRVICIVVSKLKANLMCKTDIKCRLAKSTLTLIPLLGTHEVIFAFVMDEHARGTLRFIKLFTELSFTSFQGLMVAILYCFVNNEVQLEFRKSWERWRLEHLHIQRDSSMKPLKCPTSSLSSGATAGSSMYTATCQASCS
Data set [3] concerns the target T1, GLP-1R. The experiment in a line: CRE-Luc cAMP responsive luciferase reporter assay in HEK293/CRE-Luc/hGLP1R cells. The note with it: for Emax: HEK293, read-out: Emax (% GLP-1), CRE-dependent reporter activity, HEK293/CRE-Luc/hGLP1R. Also on record: engineered to express full-length human GLP1R (GenBank: AAI12127.1) (HEK293/CRE-Luc/hGLP1R); expressed in transfected cells; host or cells: HEK293/CRE-Luc (HEK293/FSC11/pCDNA3.1 + GLP1R, ACL6822). It counts as cell-based. From the text: To test the activity of GLP1R agonist linker-payloads (LPs) and anti-GLP1R antibody-tethered ligands (ATLs) of the invention, a cell-based cAMP responsive luciferase reporter assay was developed. To generate the assay cell line, the firefly luciferase gene was placed under the control of four copies of a cAMP response element (4×CRE) located upstream of a minimal promoter and transfected into HEK293 cells and referred to herein as HEK293/CRE-Luc cells. HEK293/CRE-Luc cells were then engineered to express full-length human GLP1R (GenBank: AAI12127.1) (HEK293/CRE-Luc/hGLP1R).
(§1) For all assays, cells were seeded into 384-well plates (Falcon #353988) at 6,000 cells/well in assay media (Opti-MEM, 1% FBS, 1×Penicillin-Streptomycin) and incubated overnight at 37° C. Serial dilutions of the anti-GLP1R ATLs and non-binding control ATLs were performed in assay media. Serial dilutions of linker-payloads (LPs) were performed in 100% DMSO (ATCC, #4-X-5), followed by 1:100 dilution in assay media. Test articles were added to cells (1:5 dilution) using VIAFLO 384 (Integra) with the last well in each serial dilution series serving as a blank control containing only assay media for ATLs or assay media with 0.2% DMSO for LPs. The blank was plotted as a continuation of the serial dilution.
For the CRE-Luc assay, after a 5-hours incubation at 37° C., luciferase activity was determined by addition of ONE-Glo reagent (Promega, #E6130) followed by measurement of relative light units (RLUs) on EnVision Plate Reader (Perkin Elmer).
(§2) EC50 values for luminescence assays were determined using a four-parameter logistic equation over a 12-point dose response curve (GraphPad Prism).
In general terms: Reporter assays use an easily measured gene product as a stand-in for the process of interest.

Data set [4] deals with T1, GLP-1R. Put plainly: b-arrestin 2 recruitment enzyme fragment complementation assay in HEK293/b-arrestin2/hGLP1R cells. It counts as cell-based. Also noted: The full-length human GLP1R (NP_002053.3) with a C-terminus fusion to a small b-gal fragment called enzyme donor or ProLink (PK); host or cells: HEK293/b-arrestin2-EA (HEK293/Barrestin clone 2C6/hGLP1R-Prolink1 high sorted, ACL21687).
Excerpt: To test the recruitment of b-arrestin 1 and b-arrestin 2 to GLP1R upon receptor activation, two enzyme fragment complementation assays were developed. To generate the assay cell lines, b-arrestin 1 fused to the b-galactosidase (b-gal) reporter fragment called enzyme acceptor (EA) (i.e., b-arrestin1-EA) or b-arrestin 2 fused to the b-gal reporter fragment EA (i.e., b-arrestin2-EA) were transduced into HEK293 cells using PathHunter b-Arrestinl Retroparticles (DiscoverX, #83-OT-TB-N-01) or PathHunter b-Arrestin2 Retroparticles (DiscoverX, #93-1087), respectively. The full-length human GLP1R (NP_002053.3) with a C-terminus fusion to a small b-gal fragment called enzyme donor or ProLink (PK) (i.e., hGLP1R-PK) was then engineered into HEK293/b-arrestinl-EA cells and HEK293/b-arrestin2-EA cells to generate the cell lines referred herein as HEK293/b-arrestin1/hGLP1R and HEK293/b-arrestin2/hGLP1R. Recruitment of b-arrestin 1 or b-arrestin 2 to GLP1R in these reporter cell lines brings both b-gal fragments (EA and PK) into close proximity, leading to reconstitution of a fully functional enzyme capable of hydrolyzing a substrate and generating a chemiluminescent signal.
as §1
For b-arrestin 1 and b-arrestin 2 recruitment assays, after a 1-hour incubation at 37° C., PathHunter Detection Reagent (Eurofins DiscoverX, #93-0001) was added to the wells followed by a 1-hour incubation at room temperature. RLUs were measured on EnVision Plate Reader (Perkin Elmer).
as §2
On the technique in general: Activated receptors often draw arrestin, which recruitment assays turn into a signal.

In data set [5] the target is GLP-1R of the cAMP assay of Tables 10, 14 and 15 (human, UniProt P43220 24-463, limits assumed). Put plainly: cell-based or functional assay.
Where [6] appears, read: metabolites of Q-M6009 at 4 hours in human liver S9.
The mark [7] stands for this setting: metabolites of Q-M3190 at 4 hours in human liver S9.
The mark [8] stands for this setting: HEK293, read-out: Emax (% GLP-1), b-Arrestin2 recruitment, HEK293/b-arrestin2/hGLP1R.
[9] abbreviates: Table 10, read-out: GLP-1R CAMP EC50.

Non-standard residues stand in square brackets, D forms with d. Groups on a side chain read outwards from the residue. No end group written: not given here. AA10 = not defined here; AA1 = not defined here; AA2 = not defined here; AA6 = not defined here; AA9 = not defined here

Consider `C[C@@H](O)[C@H](NC(=O)CNC(=O)[C@H](Cc1nn[nH]n1)NC(=O)C(C)(C)C(=O)NCCc1cnc[nH]1)C(=O)N[C@@](C)(Cc1ccccc1F)C(=O)N[C@H](C(=O)N[C@@H](CO)C(=O)N[C@@H](CC(=O)O)C(=O)O)[C@@H](C)O` [AA10-AA(-AA8-AA7-AA6-AA5-AA4-AA3], for which, in data set [1] (setting [6]), the “Relative Abundance (% Total)” value came out at 0.21 % Total.
As to `CCc1cc(OCCCCn2cc(COCCOCCOCCOCCOCCOCCOCCOCCN)nn2)ccc1-c1ccc(C[C@H](NC(=O)[C@H](CC(=O)O)NC(=O)[C@H](CO)NC(=O)[C@@H](NC(=O)[C@](C)(Cc2ccccc2F)NC(=O)[C@@H](NC(=O)CNC(=O)[C@H](Cc2nn[nH]n2)NC(=O)C(C)(C)C(=O)NCCc2cnc[nH]2)[C@@H](C)O)[C@@H](C)O)C(=O)N[C@@H](CCCc2cc(C)cc(C)c2)C(N)=O)cc1` [M3190], the EC50 came out at 0.318 nM in data set [2] (Table 14, peptide amides, read-out: cAMP EC50); 5.76e-10 M in data set [3] (HEK293/CRE-Luc/hGLP1R cells, independent experiments A, B, C, read-out: EC50 (M), CRE-dependent reporter activity, HEK293/CRE-Luc/hGLP1R); 5.76e-10 M in data set [3] (HEK293/CRE-Luc/hGLP1R cells, read-out: CRE-dependent luciferase reporter activity EC50); 3.51e-08 M in data set [4] (HEK293/b-arrestin2/hGLP1R cells, read-out: b-arrestin 2 recruitment EC50). For the same molecule, the “Relative Abundance (% Total)” value in data set [1] (setting [7]) is recorded as 2.76 % Total. Further, the Emax in data set [3] amounted to 96.3%; in data set [4] (setting [8]), 128%; in data set [4] (read-out: b-arrestin 2 recruitment Emax relative to GLP-1, HEK293/b-arrestin2/hGLP1R cells), 128%.
For the molecule `CCc1cc(OCCCCn2cc(COCCOCCOCCOCCOCCOCCOCCOCCNC(=O)CCC(N)C(=O)O)nn2)ccc1-c1ccc(C[C@H](NC(=O)[C@H](CC(=O)O)NC(=O)[C@H](CO)NC(=O)[C@@H](NC(=O)C(C)(Cc2ccccc2F)NC(=O)[C@@H](NC(=O)CNC(=O)[C@H](Cc2nn[nH]n2)NC(=O)C(C)(C)C(=O)NCCc2cnc[nH]2)[C@@H](C)O)[C@@H](C)O)C(=O)N[C@@H](CCCc2cc(C)cc(C)c2)C(N)=O)cc1` (some centres unmarked) [M6067], the “Relative Abundance (% Total)” value in data set [1] (setting [7]) came out at 56.51 % Total.
Regarding `CCc1cc(OCCCCn2cc(COCCOCCOCCOCCOCCOCCOCCOCCNC(=O)CC[C@H](N)C(=O)O)nn2)ccc1-c1ccc(C[C@H](NC(=O)[C@H](CC(=O)O)NC(=O)[C@H](CO)NC(=O)[C@@H](NC(=O)C(C)(Cc2ccccc2F)NC(=O)[C@@H](NC(=O)CNC(=O)[C@H](Cc2nn[nH]n2)NC(=O)C(C)(C)C(=O)NCCc2cnc[nH]2)[C@@H](C)O)[C@@H](C)O)C(=O)O)cc1` (some centres unmarked) [M6322], in data set [2] (Table 10), the “GLP-1R CAMP Max” value was 29.24%. In addition, the EC50 in data set [2] (setting [9]) is over 1000 nM; in data set [2] (Table 15, peptide acids, read-out: cAMP EC50), over 1000 nM.
`Cc1cc(OCCOCCOCCOCCOCCOCCOCCOCCN)ccc1-c1ccc(C[C@H](NC(=O)[C@H](CC(=O)O)NC(=O)[C@H](CO)NC(=O)[C@@H](NC(=O)C(C)(Cc2ccccc2F)NC(=O)[C@@H](NC(=O)CNC(=O)[C@H](Cc2nnn[nH]2)NC(=O)C(C)(C)C(=O)NCCc2cnc[nH]2)[C@@H](C)O)[C@@H](C)O)C(=O)O)cc1` (some centres unmarked) [M6447]: the EC50 in data set [3] was over 1e-06 M; in data set [4] (HEK293/b-arrestin2/hGLP1R cells, independent experiments A, B, read-out: EC50 (M), b-Arrestin2 recruitment, HEK293/b-arrestin2/hGLP1R), over 1e-06 M. Besides, the figures for the Emax in data set [3] and in data set [4] (setting [8]) were 9.8% and 0.3%, respectively. Further, the “CRE-dependent luciferase reporter activity (in words)” value in data set [3] (HEK293/CRE-Luc/hGLP1R cells) was “very weak activator of CRE-dependent luciferase reporter activity”. Also, the “b-arrestin 2 recruitment (in words)” value in data set [4] (HEK293/b-arrestin2/hGLP1R cells) is “recruited very low levels of b-arrestin 2”.
As to `CCc1cc(OCCCCn2cc(COCCOCCOCCOCCOCCOCCOCCOCCNC(=O)CC[C@H](N)C(=O)O)nn2)ccc1-c1ccc(C[C@H](NC(=O)[C@H](CC(=O)O)NC(=O)[C@H](CO)NC(=O)[C@@H](NC(=O)C(C)(Cc2ccccc2F)NC(=O)[C@@H](NC(=O)CNC(=O)[C@H](Cc2nn[nH]n2)NC(=O)C(C)(C)C(=O)NCCc2cnc[nH]2)[C@@H](C)O)[C@@H](C)O)C(=O)N[C@@H](CCCc2cc(C)cc(C)c2)C(=O)O)cc1` (some centres unmarked) [Q-M6009], the “GLP-1R CAMP Max” value in data set [2] (Table 10) turned out to be 106.2%. For the same molecule, in data set [2] (setting [9]), the EC50 worked out at 3.21 nM. For the same molecule, the results for the “Relative Abundance (% Total)” value in data set [1] (setting [7]) and in data set [1] (setting [6]) were 38.40 % Total and 79.84 % Total, respectively.

B1: AA10-AA9-AA8-AA7-AA6-AA5-AA4-AA3-AA2-OH (peptide)
peptide: [AA10][AA9]GT[AA6]TSDX-OH
modifications: not fully specified (residue 9); printed as AA10-AA9-AA8-AA7-AA6-AA5-AA4-AA3-AA2-OH
Turning to B1, in data set [5], the “GLP-1R CAMP EC50” value was determined as 51.2 nM and the “GLP-1R CAMP Max (%)” value came out at 97.9%.

B2: AA10-AA9-AA8-AA7-AA6-AA5-AA4-AA3-AA2-AA1-OH (peptide)
peptide: [AA10][AA9]GT[AA6]TXD[AA2][AA1]-OH
modifications: not fully specified (residue 7); printed as AA10-AA9-AA8-AA7-AA6-AA5-AA4-AA3-AA2-AA1-OH; also: AA2 azidobutoxy
For B2, in data set [5], the “GLP-1R CAMP EC50” value was 2.94 nM and the “GLP-1R CAMP Max (%)” value amounted to 122%.

B3: AA10-AA9-AA8-AA7-AA6-AA5-AA4-AA3-(LLQ-L)AA2-OH (peptide)
peptide: [AA10][AA9]GT[AA6]TSD[AA2]([Leu-Gln-Leu-Leu])-OH
modifications: reading uncertain; also: printed as AA10-AA9-AA8-AA7-AA6-AA5-AA4-AA3-(LLQ-L)AA2-OH
Turning to B3, in data set [5], the “GLP-1R CAMP EC50” value is over 1000 nM and the “GLP-1R CAMP Max (%)” value is 33.9%.

B4: AA10-AA9-AA8-AA7-AA6-AA5-AA4-AA3-(Q-L)AA2-OH (peptide)
peptide: [AA10][AA9]GT[AA6]TSD[AA2]([Leu-Gln])-OH
modifications: reading uncertain; also: printed as AA10-AA9-AA8-AA7-AA6-AA5-AA4-AA3-(Q-L)AA2-OH
As to B4, in data set [5], the “GLP-1R CAMP EC50” value is over 1000 nM and the “GLP-1R CAMP Max (%)” value amounted to 29.2%.

B5: Q-M6009 (AA10-AA9-AA8-AA7-AA6-AA5-AA4-AA3-(Q-L)AA2-AA1-OH) (peptide)
peptide: XXGTXTSDXX-OH
modifications: not fully specified (residues 1, 2, 5, 9, 10); printed as Q-M6009 (AA10-AA9-AA8-AA7-AA6-AA5-AA4-AA3-(Q-L)AA2-AA1-OH)
B5: in data set [5], the “GLP-1R CAMP EC50” value stood at 3.21 nM and the “GLP-1R CAMP Max (%)” value turned out to be 106%.

B6: LLQ-M6009 (AA10-AA9-AA8-AA7-AA6-AA5-AA4-AA3-(LLQ-L)AA2-AA1-OH) (peptide)
peptide: [AA10][AA9]GT[AA6]TSD[AA2]([Leu-Gln-Leu-Leu])[AA1]-OH
modifications: reading uncertain; also: printed as LLQ-M6009 (AA10-AA9-AA8-AA7-AA6-AA5-AA4-AA3-(LLQ-L)AA2-AA1-OH)
As for B6, in data set [5], the “GLP-1R CAMP EC50” value is 13.4 nM and the “GLP-1R CAMP Max (%)” value stood at 104%.

The record behind these values is patent US20250171516A1, “PEPTIDE ACIDS AS A GLP1R AGONIST AND ANTIBODY-DRUG CONJUGATES THEREOF” (Regeneron Pharmaceuticals, Inc., priority 2023, published 2025).
